From publication PMC4800991 (Molecular pharmaceutics, 2015)
Blank lines part the entries; values can stand above or below the compound they belong to.

What was measured:
Type in all cases: cell-based
[1] = target: T1, human thiamine transporter 2 (hTHTR-2) (Homo sapiens, UniProt Q9BZV2); assay: [3H]MPP+ uptake in HEK-hTHTR-2 cells with and without fedratinib
T1 sequence (Q9BZV2 1-496): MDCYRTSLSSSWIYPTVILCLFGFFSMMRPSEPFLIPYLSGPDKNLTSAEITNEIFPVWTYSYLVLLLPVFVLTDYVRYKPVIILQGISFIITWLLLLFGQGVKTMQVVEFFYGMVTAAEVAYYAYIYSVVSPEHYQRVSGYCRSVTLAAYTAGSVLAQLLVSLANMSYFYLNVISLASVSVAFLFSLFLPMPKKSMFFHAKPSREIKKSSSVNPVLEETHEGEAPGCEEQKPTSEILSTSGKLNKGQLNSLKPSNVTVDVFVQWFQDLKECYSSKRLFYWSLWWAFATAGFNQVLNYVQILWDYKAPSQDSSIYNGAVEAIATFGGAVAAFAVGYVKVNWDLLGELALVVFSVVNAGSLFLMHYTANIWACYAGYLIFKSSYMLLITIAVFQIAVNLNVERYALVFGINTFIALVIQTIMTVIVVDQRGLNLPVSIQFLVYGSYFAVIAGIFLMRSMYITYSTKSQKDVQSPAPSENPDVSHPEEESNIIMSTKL

[2] = target: T1, human thiamine transporter 2 (hTHTR-2); assay: saturable […]metformin uptake
[3] = target: T1, human thiamine transporter 2 (hTHTR-2); assay: inhibition of [3H]thiamine uptake in HEK-hTHTR-2 cells
[4] = target: T1, human thiamine transporter 2 (hTHTR-2); assay: inhibition of [3H]thiamine and […]metformin uptake in HEK-hTHTR-2 cells at […]
[5] = target: T1, human thiamine transporter 2 (hTHTR-2); assay: saturable [3H]thiamine uptake

Structure (SMILES): C[n+]1ccc(-c2ccccc2)cc1 [MPP+, 1-methyl-4-phenylpyridinium]
[3H]MPP+ uptake in HEK-hTHTR-2 cells with and without fedratinib [1]: 1-methyl-4-phenylpyridinium (MPP^+) and the histamine H2-receptor antagonist famotidine were substrates of hTHTR-2

Structure (SMILES): CN(C)C(=N)N=C(N)N [metformin, 1,1-dimethylbiguanide]
IC50 [2]: 680 ± 140 µM

IC50 [3]: 244 ± 28.4 µM
Structure (SMILES): [H]/N=C(/N)N/C(=N/[H])NCCc1ccccc1 [phenformin]

Structure (SMILES): Cc1ncc(C[n+]2cccc(CCO)c2C)c(N)n1 [pyrithiamine]
inhibition of [3H]thiamine and [14C]metformin uptake in HEK-hTHTR-2 cells at 200 [4]: antithiamine analogues (amprolium and pyrithiamine) and prescription drugs (chloroquine, verapamil, and famotidine) were shown to be inhibitors

Structure (SMILES): Cc1ncc(C[n+]2csc(CCO)c2C)c(N)n1 [thiamine]
IC50 [5]: 1.03 ± 0.12 µM
